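Assay format: 96-well plates, 48-hour exposure. Here, GI50 denotes the concentration required for 50% inhibition of growth. TGI denotes the concentration required for complete inhibition of growth.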
What was measured:
Test in all cases: DTP human tumour cell line panel, 48 h
786-0 renal = tested on: 786-0 renal
A498 renal = tested on: A498 renal
A549 NSCLC = tested on: A549 NSCLC
ACHN renal = tested on: ACHN renal
BT-549 breast = tested on: BT-549 breast
CAKI-1 renal = tested on: CAKI-1 renal
CCRF-CEM leukemia = tested on: CCRF-CEM leukemia
COLO 205 colon = tested on: COLO 205 colon
DU-145 prostate = tested on: DU-145 prostate
EKVX NSCLC = tested on: EKVX NSCLC
HCC-2998 colon = tested on: HCC-2998 colon
HCT-116 colon = tested on: HCT-116 colon
HCT-15 colon = tested on: HCT-15 colon
HL-60(TB) leukemia = tested on: HL-60(TB) leukemia
HOP-62 NSCLC = tested on: HOP-62 NSCLC
HOP-92 NSCLC = tested on: HOP-92 NSCLC
HS 578T breast = tested on: HS 578T breast
HT29 colon = tested on: HT29 colon
IGROV1 ovarian = tested on: IGROV1 ovarian
K-562 leukemia = tested on: K-562 leukemia
KM12 colon = tested on: KM12 colon
LOX IMVI melanoma = tested on: LOX IMVI melanoma
M14 melanoma = tested on: M14 melanoma
MALME-3M melanoma = tested on: MALME-3M melanoma
MCF7 breast = tested on: MCF7 breast
MDA-MB-231 breast = tested on: MDA-MB-231 breast
MDA-MB-435 = tested on: MDA-MB-435
MOLT-4 leukemia = tested on: MOLT-4 leukemia
NCI-H226 lung = tested on: NCI-H226 lung
NCI-H23 lung = tested on: NCI-H23 lung
NCI-H460 lung = tested on: NCI-H460 lung
NCI-H522 lung = tested on: NCI-H522 lung
NCI/ADR-RES ovarian = tested on: NCI/ADR-RES ovarian
OVCAR-3 ovarian = tested on: OVCAR-3 ovarian
OVCAR-4 ovarian = tested on: OVCAR-4 ovarian
OVCAR-5 ovarian = tested on: OVCAR-5 ovarian
OVCAR-8 ovarian = tested on: OVCAR-8 ovarian
PC-3 prostate = tested on: PC-3 prostate
RPMI-8226 leukemia = tested on: RPMI-8226 leukemia
RXF 393 renal = tested on: RXF 393 renal
SF-268 CNS = tested on: SF-268 CNS
SF-295 CNS = tested on: SF-295 CNS
SF-539 CNS = tested on: SF-539 CNS
SK-MEL-2 melanoma = tested on: SK-MEL-2 melanoma
SK-MEL-28 melanoma = tested on: SK-MEL-28 melanoma
SK-MEL-5 melanoma = tested on: SK-MEL-5 melanoma
SN12C renal = tested on: SN12C renal
SNB-19 CNS = tested on: SNB-19 CNS
SNB-75 CNS = tested on: SNB-75 CNS
SR leukemia = tested on: SR leukemia
SW-620 colon = tested on: SW-620 colon
T-47D breast = tested on: T-47D breast
TK-10 renal = tested on: TK-10 renal
U251 CNS = tested on: U251 CNS
UACC-257 melanoma = tested on: UACC-257 melanoma
UACC-62 melanoma = tested on: UACC-62 melanoma
UO-31 renal = tested on: UO-31 renal

## N#Cc1cc(S(=O)(=O)Nc2nc3ccccc3s2)c(SCc2ccccc2)cc1Cl
786-0 renal
  GI50: 19.3 µM
  TGI: 39.9 µM
A498 renal
  GI50: 20.3 µM
  TGI: 45.8 µM
A549 NSCLC
  GI50: 15.4 µM
  TGI: 35.3 µM
ACHN renal
  GI50: 24.7 µM
  TGI: 75 µM
BT-549 breast
  GI50: 20 µM
  TGI: 48.9 µM
CAKI-1 renal
  GI50: 18.6 µM
  TGI: 45 µM
CCRF-CEM leukemia
  GI50: 28.5 µM
  TGI: 94.6 µM
COLO 205 colon
  GI50: 26.5 µM
  TGI: 88.6 µM
DU-145 prostate
  GI50: 24.4 µM
  TGI: 58.6 µM
EKVX NSCLC
  GI50: 17.1 µM
  TGI: 34.5 µM
HCC-2998 colon
  GI50: 17.7 µM
  TGI: 36.3 µM
HCT-116 colon
  GI50: 16.1 µM
  TGI: 32.5 µM
HCT-15 colon
  GI50: 28.5 µM
  TGI: 66.4 µM
HL-60(TB) leukemia
  GI50: 51.5 µM
  TGI: > 100 µM
HOP-62 NSCLC
  GI50: 24.5 µM
  TGI: 45.7 µM
HOP-92 NSCLC
  GI50: 24.1 µM
  TGI: 43.3 µM
HS 578T breast
  GI50: 22.4 µM
  TGI: 53.8 µM
HT29 colon
  GI50: 23.6 µM
  TGI: 55.8 µM
IGROV1 ovarian
  GI50: 18.1 µM
  TGI: 46.6 µM
K-562 leukemia
  GI50: 38.5 µM
  TGI: > 100 µM
KM12 colon
  GI50: 19.8 µM
  TGI: 46.7 µM
LOX IMVI melanoma
  GI50: 20.8 µM
  TGI: 48.2 µM
M14 melanoma
  GI50: 18.9 µM
  TGI: 37.1 µM
MALME-3M melanoma
  GI50: 21.4 µM
  TGI: 49.6 µM
MCF7 breast
  GI50: 30.7 µM
  TGI: > 100 µM
MDA-MB-231 breast
  GI50: 26.7 µM
  TGI: 82.6 µM
MDA-MB-435
  GI50: 23.8 µM
  TGI: 49.5 µM
MOLT-4 leukemia
  GI50: 27.4 µM
  TGI: 74.4 µM
NCI-H226 lung
  GI50: 31 µM
  TGI: 94.3 µM
NCI-H23 lung
  GI50: 22.4 µM
  TGI: 57.7 µM
NCI-H460 lung
  GI50: 18.4 µM
  TGI: > 100 µM
NCI-H522 lung
  GI50: 11.3 µM
  TGI: 32.3 µM
NCI/ADR-RES ovarian
  GI50: 30.6 µM
  TGI: > 100 µM
OVCAR-3 ovarian
  GI50: 22.3 µM
  TGI: 59.5 µM
OVCAR-4 ovarian
  GI50: 34.4 µM
  TGI: > 100 µM
OVCAR-5 ovarian
  GI50: 23.8 µM
  TGI: 54.7 µM
OVCAR-8 ovarian
  GI50: 6.12 µM
  TGI: 39.8 µM
PC-3 prostate
  GI50: 23.1 µM
  TGI: 51.1 µM
RPMI-8226 leukemia
  GI50: 27.9 µM
  TGI: > 100 µM
RXF 393 renal
  GI50: 20.6 µM
  TGI: 45.4 µM
SF-268 CNS
  GI50: 24.7 µM
  TGI: 78.5 µM
SF-295 CNS
  GI50: 13.6 µM
  TGI: 44.1 µM
SF-539 CNS
  GI50: 17.4 µM
  TGI: 34.8 µM
SK-MEL-2 melanoma
  GI50: 15.3 µM
  TGI: 36.8 µM
SK-MEL-28 melanoma
  GI50: 28.8 µM
  TGI: 87.8 µM
SK-MEL-5 melanoma
  GI50: 15.4 µM
  TGI: 31 µM
SN12C renal
  GI50: 19.2 µM
  TGI: 41.5 µM
SNB-19 CNS
  GI50: 20.1 µM
  TGI: 47.7 µM
SNB-75 CNS
  GI50: 26.2 µM
  TGI: 63.3 µM
SR leukemia
  GI50: 37.7 µM
  TGI: > 100 µM
SW-620 colon
  GI50: 19.8 µM
  TGI: 43.7 µM
T-47D breast
  GI50: 22.8 µM
  TGI: 73.7 µM
TK-10 renal
  GI50: 37.3 µM
  TGI: 97.5 µM
U251 CNS
  GI50: 19.2 µM
  TGI: 38.2 µM
UACC-257 melanoma
  GI50: 15.4 µM
  TGI: 35.2 µM
UACC-62 melanoma
  GI50: 11.8 µM
  TGI: 29.5 µM
UO-31 renal
  GI50: 17.8 µM
  TGI: 42.1 µM
